Reference: publication PMC7862272, “Discovery of an ene-reductase for initiating flavone and flavonol catabolism in gut bacteria” (Nature Communications, 2021)
Blank lines part the entries; values can stand above or below the molecule they belong to.

What was measured:
FLR (flavone reductase) [1] = molecular target: T1, FLR (flavone reductase) (Flavonifractor plautii, UniProt A0A096D7X8); assay: X-ray crystal structure, soaked SeMet crystal; type: binding; conditions: FMN bound, dimer interface
T1 construct: gene HMPREF9460_03474; SeMet-labelled for crystals

FLR (flavone reductase) [2] = molecular target: T1, FLR (flavone reductase); assay: X-ray crystal structure (Se-SAD); type: binding; conditions: co-purified FMN at dimer interface
[3] = molecular target: flavone reductase (FLR) from Flavonifractor plautii ATCC 49531 (Flavonifractor plautii ATCC 49531); assay: SEC-MALS; Superdex-200 10/300; 100 mM NaCl, 20 mM Tris-HCl pH 7.9, 3 mM FMN, 3 mM DTT; 100 uL of FLR at ~5 mg/mL injected; room temperature
sgrIFR = molecular target: T2, sgrIFR (Streptomyces griseus, UniProt B1W160); assay: conversion by E. coli expressing the enzyme; type: cell-based; conditions: product dihydrodaidzein
T2 construct: gene SGR_2256; expressed in E. coli BL21 from pET28a, activity of the cell culture
T2 sequence (B1W160 1-332): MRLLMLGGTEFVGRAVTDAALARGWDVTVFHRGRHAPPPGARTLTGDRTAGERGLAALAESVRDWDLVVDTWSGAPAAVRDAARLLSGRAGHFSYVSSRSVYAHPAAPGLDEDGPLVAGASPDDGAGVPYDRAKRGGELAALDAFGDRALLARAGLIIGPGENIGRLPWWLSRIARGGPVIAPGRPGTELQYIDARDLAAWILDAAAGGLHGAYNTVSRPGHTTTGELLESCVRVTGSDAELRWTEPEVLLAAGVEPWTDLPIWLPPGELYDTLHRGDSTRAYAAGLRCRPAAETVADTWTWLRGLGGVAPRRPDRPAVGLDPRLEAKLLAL

[4] = substrate: O=C1C[C@@H](c2ccc(O)cc2)Oc2cc(O)cc(O)c21; assay: HPLC, steady-state kinetics, reverse reaction; type: biochemical, Flavonifractor plautii; conditions: pH 7.0, 37 °C, 0.5 mM FMN, 5% DMSO, reverse reaction (dehydrogenation to apigenin)
Excerpt: HPLC, steady-state kinetics, reverse reaction on FLR (flavone reductase) | The determination of the Km and kcat values of FLR for naringenin

purified protein = substrate: O=c1cc(-c2ccc(O)cc2)oc2cc(O)cc(O)c12; assay: purified protein; conditions: pH 7.0, 37 °C, 5 mM NADH, 0.5 mM FMN, 5 μM Fre, 5% DMSO, anaerobic

Molecule: O=c1cc(-c2ccc(O)cc2)oc2cc(O)cc(O)c12 [apigenin]
- X-ray crystal structure, soaked SeMet crystal (FLR (flavone reductase) [1]; 2.55 Å): solved the complex structures of FLR with various substrates, including apigenin, chrysin, and luteolin

Molecule: Cc1cc2nc3c(=O)[nH]c(=O)nc-3n(C[C@H](O)[C@H](O)[C@H](O)COP(=O)(O)O)c2cc1C [FMN]
- X-ray crystal structure (Se-SAD) (FLR (flavone reductase) [2]): The cofactor molecule FMN binds at the dimer interface

Molecule: O=c1cc(-c2ccccc2)oc2cc(O)cc(O)c12 [chrysin]
- X-ray crystal structure, soaked SeMet crystal (FLR (flavone reductase) [1]; 2.65 Å): solved the complex structures of FLR with various substrates, including apigenin, chrysin, and luteolin

Molecule: O=c1cc(-c2ccc(O)c(O)c2)oc2cc(O)cc(O)c12 [luteolin]
- X-ray crystal structure, soaked SeMet crystal (FLR (flavone reductase) [1]; 2.25 Å): solved the complex structures of FLR with various substrates, including apigenin, chrysin, and luteolin

- stoichiometry N [3]: 2
Molecule: flavone reductase (FLR) from Flavonifractor plautii ATCC 49531 (enzyme)

Molecule: O=c1c(-c2ccc(O)cc2)coc2cc(O)ccc12 [daidzein]
- conversion by E. coli expressing the enzyme (sgrIFR): they could convert daidzein (a main isoflavone) to dihydrodaidzein

B1: FLR (flavone reductase) (Flavonifractor plautii 1_3_50AFAA) (protein)
chain: MKILGISGGMRNGSNDGMCIEALMGAKEMGAEVEFIQLQNLHIEHCTGCTACVQSVLGGRGGKCVLKDDFDWLLDKMLDADGIVFSTPIFEKGATGLFHTITDRFGPRMDRGNNIIGTKIAEETGGTAPDPRILKDKVISFMSVGGSDWVTRTQCDAGMLALTPMWKVIDNEVFPWALSILVEDERVARAHQIGRNIAEAAKNIEHAQYQGDAGVCPHCHSRNFHLQDGKAICCLCGLEGEIHNESGKYSFTFPAEQLEHAHDTLSGKFIHGNDIKENTGKKIANMQTEKYKARQAAYRAFITATVPEKG
notes: SeMet-labelled for crystals
- Km [4]: 12.27 ± 1.46 µM
- kcat [4]: 0.0577 ± 0.0025 s⁻¹
- Km (purified protein): 8.36 ± 1.34 µM
- kcat (purified protein): 0.0165 ± 0.0009 s⁻¹
